Reference: the supplement of paper PMC9663587

How the values were obtained:
[1] = compound: Cc1nn(C)c(COc2ccc(N3CCN(S(=O)(=O)N(C)C)CC3)cc2)c1-c1cccc2c(CCCOc3cccc4ccccc34)c(C(=O)O)n(CCN3CCOCC3)c12
Ceritinib/LDK378 = compound: Cc1cc(Nc2ncc(Cl)c(Nc3ccccc3S(=O)(=O)C(C)C)n2)c(OC(C)C)cc1C1CCNCC1 [Ceritinib/LDK378]
LEE011/Ribociclib [2] = compound: T1, CN(C)C(=O)c1cc2cnc(Nc3ccc(N4CCNCC4)cn3)nc2n1C1CCCC1 [LEE011/Ribociclib]
Doxorubicin = compound: COc1cccc2c1C(=O)c1c(O)c3c(c(O)c1C2=O)C[C@@](O)(C(=O)CO)C[C@@H]3O[C@H]1C[C@H](N)[C@H](O)[C@H](C)O1 [Doxorubicin]
[3] = compound: CCc1cnn2c(NCc3ccc[n+]([O-])c3)cc(N3CCCC[C@H]3CCO)nc12
Pictilisib/GDC0941 = compound: CS(=O)(=O)N1CCN(Cc2cc3nc(-c4cccc5[nH]ncc45)nc(N4CCOCC4)c3s2)CC1 [Pictilisib/GDC0941]
BSJ-03-123 = compound: CC(=O)c1c(C)c2cnc(Nc3ccc(N4CCN(CCOCCOCCOCCNC(=O)COc5cccc6c5C(=O)N(C5CCC(=O)NC5=O)C6=O)CC4)cn3)nc2n(C2CCCC2)c1=O [BSJ-03-123]; assay: increase in dead-cell fraction, 72 h; higher = more death;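 note: breast cancer cell lines in 384-well plates, stained with Hoechst plus LIVE/DEAD far red dye and imaged, cells above an LDR intensity threshold counted dead, Hoechst-negative corpses included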
[4] = compound: CCN1CCN(Cc2ccc(Nc3ncc(F)c(-c4cc(F)c5nc(C)n(C(C)C)c5c4)n3)nc2)CC1; assay: as above
LEE011/Ribociclib [5] = compound: T1, LEE011/Ribociclib; assay: as above
[6] = compound: CC(=O)c1c(C)c2cnc(Nc3ccc(N4CCNCC4)cn3)nc2n(C2CCCC2)c1=O; assay: as above
Neratinib/HKI272 = compound: CCOc1cc2ncc(C#N)c(Nc3ccc(OCc4ccccn4)c(Cl)c3)c2cc1NC(=O)/C=C/CN(C)C [Neratinib/HKI272]; assay: as above
THZ531 = compound: CN(C)C/C=C/C(=O)Nc1ccc(C(=O)N2CCC[C@@H](Nc3ncc(Cl)c(-c4c[nH]c5ccccc45)n3)C2)cc1 [THZ531]; assay: as above
YKL-5-124 = compound: C=CC(=O)Nc1ccc(C(=O)Nc2[nH]nc3c2CN(C(=O)N[C@H](CN(C)C)c2ccccc2)C3(C)C)cc1 [YKL-5-124]; assay: as above
[7] = compound: CCc1cnn2c(NCc3ccc[n+]([O-])c3)cc(N3CCCC[C@H]3CCO)nc12; assay: as above
THZ1 = compound: CN(C)C/C=C/C(=O)Nc1ccc(C(=O)Nc2cccc(Nc3ncc(Cl)c(-c4c[nH]c5ccccc45)n3)c2)cc1 [THZ1]; assay: as above
Flavopiridol = compound: CN1CC[C@H](c2c(O)cc(O)c3c(=O)cc(-c4ccccc4Cl)oc23)[C@H](O)C1 [Flavopiridol]; assay: as above
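Throughout, for GR50, 72 h: breast cancer and non-malignant breast epithelial cell lines, Deep Dye Drop or Dye Drop imaging, nine half-log doses, GR normalized to time-zero plates and DMSO-only controls.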

For UACC893, the “GR50, 72 h” value [1] was over 10 µM, the “GR50, 72 h” value (Ceritinib/LDK378) was over 10 µM and the “GR50, 72 h” value (LEE011/Ribociclib [2]) was 0.0051 µM. The “GR50, 72 h” value (Doxorubicin) was 0.0106 µM, the “GR50, 72 h” value [3] was 0.017 µM and the “GR50, 72 h” value (Pictilisib/GDC0941) was 0.682 µM. For the same cell line, the “increase in dead-cell fraction” value (BSJ-03-123; 0.001 µM) was -0.0061, the “increase in dead-cell fraction” value (BSJ-03-123; 0.003162 µM) was 0.0019 and the “increase in dead-cell fraction” value (BSJ-03-123; 0.01 µM) was 0.0038. The “increase in dead-cell fraction” value (BSJ-03-123; 0.03162 µM) was -0.0027, the “increase in dead-cell fraction” value (BSJ-03-123; 0.1 µM) was 0.0026 and the “increase in dead-cell fraction” value (BSJ-03-123; 0.3162 µM) was 0.0022. For the same cell line, the “increase in dead-cell fraction” value (BSJ-03-123; 1 µM) was 0.0012, the “increase in dead-cell fraction” value (BSJ-03-123; 3.162 µM) was -0.0003 and the “increase in dead-cell fraction” value (BSJ-03-123; 10 µM) was 0.0009. For the same cell line, the “increase in dead-cell fraction” value ([4]; 0.001 µM) was -0.001, the “increase in dead-cell fraction” value ([4]; 0.003162 µM) was 0.0022 and the “increase in dead-cell fraction” value ([4]; 0.01 µM) was 0.0063. For the same cell line, the “increase in dead-cell fraction” value ([4]; 0.03162 µM) was 0.0037, the “increase in dead-cell fraction” value ([4]; 0.1 µM) was 0.0039 and the “increase in dead-cell fraction” value ([4]; 0.3162 µM) was 0.0024. The “increase in dead-cell fraction” value ([4]; 1 µM) was 0.0009, the “increase in dead-cell fraction” value ([4]; 3.162 µM) was -0.0005 and the “increase in dead-cell fraction” value ([4]; 10 µM) was 0.0324. The “increase in dead-cell fraction” value (LEE011/Ribociclib [5]; 0.001 µM) was -0.0008, the “increase in dead-cell fraction” value (LEE011/Ribociclib [5]; 0.003162 µM) was -0.0005 and the “increase in dead-cell fraction” value (LEE011/Ribociclib [5]; 0.01 µM) was 0.0034. For the same cell line, the “increase in dead-cell fraction” value (LEE011/Ribociclib [5]; 0.03162 µM) was 0.0015, the “increase in dead-cell fraction” value (LEE011/Ribociclib [5]; 0.1 µM) was 0.0055 and the “increase in dead-cell fraction” value (LEE011/Ribociclib [5]; 0.3162 µM) was 0.0017. For the same cell line, the “increase in dead-cell fraction” value (LEE011/Ribociclib [5]; 1 µM) was 0.0062, the “increase in dead-cell fraction” value (LEE011/Ribociclib [5]; 3.162 µM) was 0.0013 and the “increase in dead-cell fraction” value (LEE011/Ribociclib [5]; 10 µM) was 0.0077. The “increase in dead-cell fraction” value ([6]; 0.0003162 µM) was -0.0005, the “increase in dead-cell fraction” value ([6]; 0.001 µM) was 0.0008 and the “increase in dead-cell fraction” value ([6]; 0.003162 µM) was -0.0028. The “increase in dead-cell fraction” value ([6]; 0.01 µM) was 0.0018, the “increase in dead-cell fraction” value ([6]; 0.03162 µM) was 0.006 and the “increase in dead-cell fraction” value ([6]; 0.1 µM) was 0.0063. The “increase in dead-cell fraction” value ([6]; 0.3162 µM) was 0.0087, the “increase in dead-cell fraction” value ([6]; 1 µM) was 0.0064 and the “increase in dead-cell fraction” value ([6]; 3.162 µM) was 0.0017. The “increase in dead-cell fraction” value (Neratinib/HKI272; 0.0003162 µM) was -0.0043, the “increase in dead-cell fraction” value (Neratinib/HKI272; 0.001 µM) was -0.0037 and the “increase in dead-cell fraction” value (Neratinib/HKI272; 0.003162 µM) was 0.0271. For the same cell line, the “increase in dead-cell fraction” value (Neratinib/HKI272; 0.01 µM) was 0.0964, the “increase in dead-cell fraction” value (Neratinib/HKI272; 0.03162 µM) was 0.113 and the “increase in dead-cell fraction” value (Neratinib/HKI272; 0.1 µM) was 0.187. For the same cell line, the “increase in dead-cell fraction” value (Neratinib/HKI272; 0.3162 µM) was 0.21, the “increase in dead-cell fraction” value (Neratinib/HKI272; 1 µM) was 0.299 and the “increase in dead-cell fraction” value (Neratinib/HKI272; 3.162 µM) was 0.417. The “increase in dead-cell fraction” value (THZ531; 0.0001 µM) was -0.0016, the “increase in dead-cell fraction” value (THZ531; 0.0003162 µM) was 0.0009 and the “increase in dead-cell fraction” value (THZ531; 0.001 µM) was 0.0027. The “increase in dead-cell fraction” value (THZ531; 0.003162 µM) was 0.0008, the “increase in dead-cell fraction” value (THZ531; 0.01 µM) was -0.0019 and the “increase in dead-cell fraction” value (THZ531; 0.03162 µM) was 0.0067. For the same cell line, the “increase in dead-cell fraction” value (THZ531; 0.1 µM) was 0.0859, the “increase in dead-cell fraction” value (THZ531; 0.3162 µM) was 0.0937 and the “increase in dead-cell fraction” value (THZ531; 1 µM) was 0.109. The “increase in dead-cell fraction” value (YKL-5-124; 0.001 µM) was -0.0033, the “increase in dead-cell fraction” value (YKL-5-124; 0.003162 µM) was 0.0007 and the “increase in dead-cell fraction” value (YKL-5-124; 0.01 µM) was 0.002. For the same cell line, the “increase in dead-cell fraction” value (YKL-5-124; 0.03162 µM) was 0.0043, the “increase in dead-cell fraction” value (YKL-5-124; 0.1 µM) was 0.007 and the “increase in dead-cell fraction” value (YKL-5-124; 0.3162 µM) was 0.0024. The “increase in dead-cell fraction” value (YKL-5-124; 1 µM) was -0.0001, the “increase in dead-cell fraction” value (YKL-5-124; 3.162 µM) was 0.0003 and the “increase in dead-cell fraction” value (YKL-5-124; 10 µM) was 0.163. For the same cell line, the “increase in dead-cell fraction” value ([7]; 0.0001 µM) was -0.0009, the “increase in dead-cell fraction” value ([7]; 0.0003162 µM) was 0.0014 and the “increase in dead-cell fraction” value ([7]; 0.001 µM) was -0.005. The “increase in dead-cell fraction” value ([7]; 0.003162 µM) was -0.0023, the “increase in dead-cell fraction” value ([7]; 0.01 µM) was 0.0014 and the “increase in dead-cell fraction” value ([7]; 0.03162 µM) was 0.0697. For the same cell line, the “increase in dead-cell fraction” value ([7]; 0.1 µM) was 0.123, the “increase in dead-cell fraction” value ([7]; 0.3162 µM) was 0.166 and the “increase in dead-cell fraction” value ([7]; 1 µM) was 0.169. For the same cell line, the “increase in dead-cell fraction” value (THZ1; 0.0001 µM) was -0.0022, the “increase in dead-cell fraction” value (THZ1; 0.0003162 µM) was -0.0022 and the “increase in dead-cell fraction” value (THZ1; 0.001 µM) was 0.0023. For the same cell line, the “increase in dead-cell fraction” value (THZ1; 0.003162 µM) was -0.0026, the “increase in dead-cell fraction” value (THZ1; 0.01 µM) was -0.0007 and the “increase in dead-cell fraction” value (THZ1; 0.03162 µM) was 0.0317. The “increase in dead-cell fraction” value (THZ1; 0.1 µM) was 0.0774, the “increase in dead-cell fraction” value (THZ1; 0.3162 µM) was 0.0967 and the “increase in dead-cell fraction” value (THZ1; 1 µM) was 0.134. The “increase in dead-cell fraction” value (Flavopiridol; 0.0001 µM) was -0.0013, the “increase in dead-cell fraction” value (Flavopiridol; 0.0003162 µM) was -0.0009 and the “increase in dead-cell fraction” value (Flavopiridol; 0.001 µM) was 0.0052. For the same cell line, the “increase in dead-cell fraction” value (Flavopiridol; 0.003162 µM) was -0.0042, the “increase in dead-cell fraction” value (Flavopiridol; 0.01 µM) was -0.0006 and the “increase in dead-cell fraction” value (Flavopiridol; 0.03162 µM) was 0.0011. The “increase in dead-cell fraction” value (Flavopiridol; 0.1 µM) was 0.0012, the “increase in dead-cell fraction” value (Flavopiridol; 0.3162 µM) was 0.013 and the “increase in dead-cell fraction” value (Flavopiridol; 1 µM) was 0.132.
